# Laboratory results from patent US7208314B2, “Compositions and methods for drug delivery using pH sensitive molecules” (priority 2002, dated 2007).
# Like-named read-outs stand apart in the source and are kept apart here. Peptide text beside a SMILES is read from it. * marks the point of attachment. X1 = C/C(C(=O)O)=C(\C)C(=O)*
# How the values were obtained:
# [1] = system: 3T3 mouse embryonic fibroblast cells; test: In vitro transfection with DNA-PLL-KL3 and dimethylmaleamic KL3, luciferase expression; type: cell-based
# Experimental: To a complex of plasmid DNA pCIluc (10 μg/mL, 0.075 mM in phosphate, 2.6 μg/μL pCIluc; prepared according to Danko, I., Williams, P., Herweijer, H. Zhang, G., Latendresse, J. S., Bock, I., Wolff, J. A. Hum. Mol. Genetics 1997, 6, 1435.) and poly-L-lysine (40 μg/mL) in 0.5 mL of 5 mM HEPES pH 7.5 was added succinylated poly-L-lysine (34,000 MW, Aldrich Chemical), 2,3-dimethylmaleamic melittin and 2,3-dimethylmaleamic KL3. The DNA-poly-L-lysine-2,3-dimethylmaleamic peptide complexes were then added (200 μL) to wells containing 3T3 mouse embryonic fibroblast cells in 290 mM glucose and 5 mM HEPES buffer pH 7.5. After 1.5 h, the glucose media was replaced with Dubelco's modified Eagle Media and the cells were allowed to incubate for 48 h. The cells were then harvested and then assayed for luciferase expression as previously reported (Wolff, J. A., Malone, R. W., Williams, P., Chong, W., Acsadi, G., Jani, A. and Felgner, P. L. Direct gene transfer into mouse muscle in vivo. Science, 1465–1468, 1990.). A Lumat LB 9507 (EG&G Berthold, Bad-Wildbad, Germany) luminometer was used. The amount of transfection was reported in relative light units and is the average transfection for two separate wells of cells.
# [2] = system: 3T3 mouse embryonic fibroblast cells; test: In vitro transfection with DNA-PLL complexes with dimethylmaleamic KL3 and dimethylmaleamic KL3-PLL; type: cell-based; details: pCIluc DNA/poly-L-lysine complex plus 10 mg modified peptide; opti-MEM 4 h; 48 h
# Experimental: To a complex of plasmid DNA pCIluc (10 μg/mL, prepared according to Danko, I., Williams, P., Herweijer, H. Zhang, G., Latendresse, J. S., Bock, I., Wolff, J. A. Hum. Mol. Genetics 1997, 6, 1435.) and poly-L-lysine (40 μg/mL) in 0.5 mL water was added 10 mg of 2,3-dimethylmaleamic -KL3-PLL or 2,3-dimethylmaleamic -KL3. The DNA-poly-L-lysine-2,3-dimethylmaleamic peptide complexes were then added (200 μL) to a well containing 3T3 mouse embryonic fibroblast cells in opti-MEM. After 4 h, the media was replaced with 90% Dubelco's modified Eagle Media and 10% fetal bovine serum the cells were then allowed to incubate for 48 h. The cells were then harvested and then assayed for luciferase expression as previously reported (Wolff, J. A., Malone, R. W., Williams, P., Chong, W., Acsadi, G., Jani, A. and Felgner, P. L. Direct gene transfer into mouse muscle in vivo. Science, 1465–1468, 1990.). A Lumat LB 9507 (EG&G Berthold, Bad-Wildbad, Germany) luminometer was used. The amount of transfection was reported in relative light units and is the average transfection for two separate wells of cells.
# [3] = Kinetics of conversion of dimethylmaleamic modified amines to amines at pH 5 (trinitrobenzenesulfonate); type: physicochemical; details: 40 mM sodium acetate buffer pH 5 and 1 mM cetyltrimetylammonium bromide
# Experimental: Dimethyl maleamic modified poly-L-lysine (10 mg/mL) was incubated in 10 mM sodium acetate buffer pH 5. At various times, aliquots (10 μg) were removed and added to 0.5 mL of 100 mM borax solution containing 0.4 mM trinitrobenzenesulfonate. A half an hour later, the absorbance of the solution at 420 nm was measured. To determine the concentration of amines at each time point, the extinction coefficient was determine for the product of trinitrobenzenesulfonate and poly-L-lysine. Using this extinction coefficient we were able to calculate the amount of amines and maleamic groups at each time point. A plot of ln (At/A0) as a function of time was a straight line whose slope is the negative of the rate constant for the conversion of maleamic acid to amine and anhydride, where At is the concentration of maleamic acid at a time t and A0 is the initial concentration of maleamic acid. For two separate experiments we calculated rate constants of […] which correspond to half lives of roughly 10 and 4 minutes respectively.
# Dimethyl maleamic modified KL3 (0.1 mg/mL) was incubated in 40 mM sodium acetate buffer pH 5 and 1 mM cetyltrimetylammonium bromide. At various times, aliquots (10 μg) were removed and added to 0.05 mL of 1 M borax solution containing 4 mM trinitrobenzenesulfonate. A half an hour later, the absorbance of the solution at 420 nm was measured. […]
# [4] = Hemolysis assay: melittin or KL3 blocked by anionic polymer or dimethylmaleic anhydride; type: cell-based; details: pH 7.5, read-out: Percent hemolysis
# Experimental: The membrane-disruptive activity of the peptide melittin and subsequent blocking of activity by anionic polymers was measured using a red blood cell (RBC) hemolysis assay. RBCs were harvested by centrifuging whole blood for 4 min. They were washed three times with 100 mM dibasic sodium phosphate at the desired pH, and resuspended in the same buffer to yield the initial volume. They were diluted 10 times in the same buffer, and 200 uL of this suspension was used for each tube. This yields 10 ? 8 RBCs per tube. Each tube contained 800 uL of buffer, 200 uL of the RBC suspension, and the peptide with or without polymer. Each sample was then repeated to verify reproducibility. The tubes were incubated for 30 minutes in a 37 C water bath. They were spun for 5 min at full speed in the microcentifuge. Lysis was determined by measuring the absorbance of the supernatant at 541 nm, reflecting the amount of hemoglobin that had been released into the supernatant. Percent hemolysis was calculated assuming 100% lysis to be measured by the hemoglobin released by the red blood cells in water; controls of RBCs in buffer with no peptide were also run.
smiles,measurement,setting,value
"C/C(C(=O)O)=C(\C)C(=O)NCCCC[C@H](NC(=O)/C(C)=C(/C)C(=O)O)C(=O)N[C@@H](CC(C)C)C(=O)N[C@@H](CC(C)C)C(=O)N[C@@H](CCCCNC(=O)/C(C)=C(/C)C(=O)O)C(=O)N[C@@H](CC(C)C)C(=O)N[C@@H](CC(C)C)C(=O)N[C@@H](CC(C)C)C(=O)N[C@@H](CCCCNC(=O)/C(C)=C(/C)C(=O)O)C(=O)N[C@@H](CC(C)C)C(=O)N[C@@H](Cc1c[nH]c2ccccc12)C(=O)N[C@@H](CC(C)C)C(=O)N[C@@H](CCCCNC(=O)/C(C)=C(/C)C(=O)O)C(=O)N[C@@H](CC(C)C)C(=O)N[C@@H](CC(C)C)C(=O)N[C@@H](CCCCNC(=O)/C(C)=C(/C)C(=O)O)C(=O)N[C@@H](CC(C)C)C(=O)N[C@@H](CC(C)C)C(=O)N[C@@H](CC(C)C)C(=O)N[C@@H](CCCCNC(=O)/C(C)=C(/C)C(=O)O)C(=O)N[C@@H](CC(C)C)C(=O)N[C@@H](CC(C)C)C(=O)O [2,3-dimethylmaleamic KL3] (X1-K(X1)LLK(X1)LLLK(X1)LWLK(X1)LLK(X1)LLLK(X1)LL-OH; N-terminus and C-terminus assumed)",Relative Light Units (luciferase expression),"[1]; pCIluc DNA/poly-L-lysine complex plus named additive, 48 h, average of two wells",49535 Relative Light Units
same,Relative Light Units relative to Succinylated poly-L-lysine,[1]; value in parentheses,7.7
same,Relative Light Units (luciferase expression),[2],20927 Relative Light Units
same,rate constant for the conversion of maleamic acid to amine and anhydride,[3],0.087 s⁻¹
same,hemolysis,"[4]; 30 minutes, 37 C",4%
same,hemolysis,[4]; post incubation at pH 5.4 30 seconds,85%
